Experimental data: ChEMBL document CHEMBL4387733, “Design, synthesis and biological evaluation of indane derived GPR40 agoPAMs” (Bioorg Med Chem Lett, 2019)
In brackets after ≈: the same amount, converted by molar mass. Activity calls are given as the source filed them. No cut-off for these calls is given here.

Tests used:
[1] = Drug level in human hepatocytes treated with (2S,3R)-3-cyclopropyl-3-(3-((R)-5-(2-fluoro-5-methoxyphenyl)-2,3-dihydro-1H-inden-1-yloxy)phenyl)-2-methylpropanoic acid at 5 uM measured after 2 hrs; format: ADME, cell-based, Hepatocyte
[2] = Stability of the compound in pH 7.4 potassium phosphate buffer at 10 uM measured after 5 hrs; format: physicochemical; settings: pH 7.4, 5 h
[3] = molecular target: Beta-3 adrenergic receptor (Homo sapiens) (UniProt P13945); assay: Inhibition of human beta3 adrenergic receptor at 10 uM relative to control
Sequence of Beta-3 adrenergic receptor (Homo sapiens) (P13945 whole entry, looked up): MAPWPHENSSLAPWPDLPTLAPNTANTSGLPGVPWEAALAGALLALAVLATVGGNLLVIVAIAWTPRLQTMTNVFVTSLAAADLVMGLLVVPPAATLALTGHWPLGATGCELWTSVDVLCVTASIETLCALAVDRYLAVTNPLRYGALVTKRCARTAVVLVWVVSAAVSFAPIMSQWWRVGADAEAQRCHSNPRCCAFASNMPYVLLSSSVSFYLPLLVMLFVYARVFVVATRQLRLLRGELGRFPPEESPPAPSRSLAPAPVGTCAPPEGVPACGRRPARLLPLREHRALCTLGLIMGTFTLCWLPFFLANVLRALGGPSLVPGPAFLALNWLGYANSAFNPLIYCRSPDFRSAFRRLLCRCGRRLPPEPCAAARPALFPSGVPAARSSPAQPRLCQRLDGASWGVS

[4] = molecular target: T1, Free fatty acid receptor 1 (Homo sapiens, UniProt O14842); assay: Positive allosteric modulation of recombinant human GPR40 expressed in HEK293 cells assessed as increase in [3H]-myo-inositol phosphate accumulation measured after 60 mins in presence of 100% human serum by microbeta counting method relative to control; format: functional, cell-based
T1 sequence (O14842 whole entry): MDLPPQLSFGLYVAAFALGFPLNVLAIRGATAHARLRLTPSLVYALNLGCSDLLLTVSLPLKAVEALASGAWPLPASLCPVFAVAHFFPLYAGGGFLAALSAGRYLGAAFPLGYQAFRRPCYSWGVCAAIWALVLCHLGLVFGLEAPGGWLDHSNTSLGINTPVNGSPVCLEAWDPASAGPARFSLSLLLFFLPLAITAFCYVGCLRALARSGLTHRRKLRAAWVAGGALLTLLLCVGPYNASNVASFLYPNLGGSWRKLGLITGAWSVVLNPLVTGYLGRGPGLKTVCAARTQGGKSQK

[5] = molecular target: T1, Free fatty acid receptor 1; assay: Positive allosteric modulation of recombinant human GPR40 expressed in HEK293 cells assessed as increase in [3H]-myo-inositol phosphate accumulation measured after 60 mins in absence of human serum by microbeta counting method relative to control; format: functional, cell-based; set-up: concentration or dose not given beside the values
[6] = molecular target: T1, Free fatty acid receptor 1; assay: Positive allosteric modulation of recombinant human GPR40 expressed in HEK293 cells assessed as increase in [3H]-myo-inositol phosphate accumulation measured after 60 mins in presence of 100% human serum by microbeta counting method; format: functional, cell-based
[7] = Protein binding in human plasma assessed as unbound fraction level; format: ADME, cell-free
[8] = molecular target: Acetylcholinesterase (Homo sapiens) (UniProt P22303); assay: Inhibition of human recombinant full length acetylcholine esterase expressed in HEK293 cells at 10 uM using acetylcholine as substrate preincubated for 15 mins followed by substrate addition measured after 20 mins by spectrophotometric analysis
Sequence of Acetylcholinesterase (Homo sapiens) (P22303 whole entry): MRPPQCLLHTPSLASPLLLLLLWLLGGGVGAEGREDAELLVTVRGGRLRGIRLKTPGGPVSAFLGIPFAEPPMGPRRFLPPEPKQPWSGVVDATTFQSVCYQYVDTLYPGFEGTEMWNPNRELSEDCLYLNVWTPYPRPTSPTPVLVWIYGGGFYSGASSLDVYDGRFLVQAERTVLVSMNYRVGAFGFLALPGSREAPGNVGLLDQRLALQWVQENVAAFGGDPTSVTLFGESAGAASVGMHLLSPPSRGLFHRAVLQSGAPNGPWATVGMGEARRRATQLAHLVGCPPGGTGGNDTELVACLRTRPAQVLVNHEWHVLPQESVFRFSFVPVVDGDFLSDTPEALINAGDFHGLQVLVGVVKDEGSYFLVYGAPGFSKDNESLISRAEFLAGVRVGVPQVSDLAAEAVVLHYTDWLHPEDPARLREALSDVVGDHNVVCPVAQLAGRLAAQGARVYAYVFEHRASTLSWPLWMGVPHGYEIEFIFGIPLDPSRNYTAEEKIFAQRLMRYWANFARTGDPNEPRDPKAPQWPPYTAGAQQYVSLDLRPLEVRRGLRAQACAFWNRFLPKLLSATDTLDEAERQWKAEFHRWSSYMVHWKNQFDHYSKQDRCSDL

[9] = molecular target: Cysteinyl leukotriene receptor 2 (Homo sapiens) (UniProt Q9NS75); assay: Displacement of [3H]LTD4 from human full-length recombinant cysteinyl leukotriene type-2 receptor expressed in HEK293 cells at 10 uM measured after 60 mins by scintillation counting method relative to control; format: cell-based
Sequence of Cysteinyl leukotriene receptor 2 (Homo sapiens) (Q9NS75 whole entry): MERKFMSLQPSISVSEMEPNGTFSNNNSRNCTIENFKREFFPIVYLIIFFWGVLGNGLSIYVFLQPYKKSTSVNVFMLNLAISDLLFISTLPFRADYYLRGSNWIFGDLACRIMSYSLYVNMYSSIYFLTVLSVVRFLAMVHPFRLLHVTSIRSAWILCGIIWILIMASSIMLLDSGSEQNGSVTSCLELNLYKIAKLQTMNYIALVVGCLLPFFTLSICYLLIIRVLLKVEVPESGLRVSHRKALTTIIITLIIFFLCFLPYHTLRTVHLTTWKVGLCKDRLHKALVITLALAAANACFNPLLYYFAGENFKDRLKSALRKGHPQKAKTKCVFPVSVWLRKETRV

[10] = molecular target: Peroxisome proliferator-activated receptor gamma (Homo sapiens) (UniProt P37231); assay: Inhibition of human PPARG at 10 uM relative to control
Sequence of Peroxisome proliferator-activated receptor gamma (Homo sapiens) (P37231 whole entry): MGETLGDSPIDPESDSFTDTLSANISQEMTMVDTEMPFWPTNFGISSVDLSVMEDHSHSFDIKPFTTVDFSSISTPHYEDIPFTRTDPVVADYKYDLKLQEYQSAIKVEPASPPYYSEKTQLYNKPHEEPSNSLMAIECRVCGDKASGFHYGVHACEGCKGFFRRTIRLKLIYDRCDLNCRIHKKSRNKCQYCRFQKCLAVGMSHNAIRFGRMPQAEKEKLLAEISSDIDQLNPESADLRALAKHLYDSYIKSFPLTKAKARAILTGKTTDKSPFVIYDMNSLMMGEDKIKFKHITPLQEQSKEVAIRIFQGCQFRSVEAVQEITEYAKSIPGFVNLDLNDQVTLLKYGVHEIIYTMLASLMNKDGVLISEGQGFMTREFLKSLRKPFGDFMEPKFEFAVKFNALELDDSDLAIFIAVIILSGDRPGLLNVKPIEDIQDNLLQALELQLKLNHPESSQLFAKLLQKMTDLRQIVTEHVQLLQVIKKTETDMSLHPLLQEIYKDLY

[11] = molecular target: Prostacyclin receptor (Homo sapiens) (UniProt P43119); assay: Inhibition of human prostanoid IP receptor at 10 uM relative to control
Sequence of Prostacyclin receptor (Homo sapiens) (P43119 whole entry): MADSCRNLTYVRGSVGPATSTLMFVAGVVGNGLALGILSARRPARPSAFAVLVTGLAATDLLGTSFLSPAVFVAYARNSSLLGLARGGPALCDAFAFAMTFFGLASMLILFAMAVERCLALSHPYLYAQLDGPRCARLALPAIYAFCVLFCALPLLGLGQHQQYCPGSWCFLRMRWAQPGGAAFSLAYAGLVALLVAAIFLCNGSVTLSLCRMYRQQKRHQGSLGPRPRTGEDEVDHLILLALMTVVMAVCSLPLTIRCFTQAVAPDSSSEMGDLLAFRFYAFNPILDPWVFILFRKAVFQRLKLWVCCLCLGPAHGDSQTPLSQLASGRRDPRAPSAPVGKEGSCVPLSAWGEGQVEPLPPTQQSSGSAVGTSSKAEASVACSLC

[12] = molecular target: Sodium-dependent dopamine transporter (Homo sapiens) (UniProt Q01959); assay: Inhibition of human sodium dependent dopamine transporter at 10 uM relative to control
Sequence of Sodium-dependent dopamine transporter (Homo sapiens) (Q01959 whole entry): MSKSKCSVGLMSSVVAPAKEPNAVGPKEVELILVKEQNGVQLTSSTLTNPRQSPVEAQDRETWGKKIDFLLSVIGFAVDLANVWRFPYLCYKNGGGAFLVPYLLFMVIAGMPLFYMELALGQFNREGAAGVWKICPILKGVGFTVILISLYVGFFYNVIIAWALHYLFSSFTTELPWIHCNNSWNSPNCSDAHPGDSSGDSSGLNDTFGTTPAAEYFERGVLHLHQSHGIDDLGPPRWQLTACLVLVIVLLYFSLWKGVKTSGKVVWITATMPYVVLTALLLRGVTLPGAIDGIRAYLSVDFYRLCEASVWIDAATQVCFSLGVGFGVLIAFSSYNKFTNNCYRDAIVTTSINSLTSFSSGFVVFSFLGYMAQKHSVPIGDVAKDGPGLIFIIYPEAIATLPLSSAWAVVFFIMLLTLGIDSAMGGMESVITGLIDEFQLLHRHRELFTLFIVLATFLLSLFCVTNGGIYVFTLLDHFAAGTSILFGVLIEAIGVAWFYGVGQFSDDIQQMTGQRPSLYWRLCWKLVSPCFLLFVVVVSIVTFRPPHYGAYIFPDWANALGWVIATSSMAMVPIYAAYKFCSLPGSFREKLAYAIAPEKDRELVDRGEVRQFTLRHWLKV

[13] = molecular target: Sodium-dependent noradrenaline transporter (Homo sapiens) (UniProt P23975); assay: Inhibition of human sodium dependent noradrenaline transporter at 10 uM relative to control
Sequence of Sodium-dependent noradrenaline transporter (Homo sapiens) (P23975 whole entry): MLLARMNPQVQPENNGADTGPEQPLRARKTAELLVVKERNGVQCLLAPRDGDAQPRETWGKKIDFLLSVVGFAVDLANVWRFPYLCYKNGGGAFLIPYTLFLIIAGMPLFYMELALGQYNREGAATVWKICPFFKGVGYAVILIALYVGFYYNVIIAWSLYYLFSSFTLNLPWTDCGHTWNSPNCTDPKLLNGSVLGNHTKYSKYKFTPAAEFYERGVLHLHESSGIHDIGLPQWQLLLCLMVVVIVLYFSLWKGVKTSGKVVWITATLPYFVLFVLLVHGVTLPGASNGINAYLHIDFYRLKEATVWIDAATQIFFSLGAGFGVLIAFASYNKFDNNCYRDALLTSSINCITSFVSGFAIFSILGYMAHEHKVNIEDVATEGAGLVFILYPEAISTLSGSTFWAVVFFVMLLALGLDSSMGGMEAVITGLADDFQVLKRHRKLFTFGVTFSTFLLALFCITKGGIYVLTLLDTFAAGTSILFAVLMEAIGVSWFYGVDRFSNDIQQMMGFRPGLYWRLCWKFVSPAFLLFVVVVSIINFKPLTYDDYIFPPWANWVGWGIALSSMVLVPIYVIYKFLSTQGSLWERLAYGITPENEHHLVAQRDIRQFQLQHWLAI

[14] = molecular target: Histamine H1 receptor (Homo sapiens) (UniProt P35367); assay: Inhibition of human histamine H1 receptor at 10 uM relative to control
[15] = molecular target: Prostaglandin E2 receptor EP1 subtype (Homo sapiens) (UniProt P34995); assay: Inhibition of human prostanoid EP1 receptor at 10 uM relative to control
Sequence of Prostaglandin E2 receptor EP1 subtype (Homo sapiens) (P34995 whole entry): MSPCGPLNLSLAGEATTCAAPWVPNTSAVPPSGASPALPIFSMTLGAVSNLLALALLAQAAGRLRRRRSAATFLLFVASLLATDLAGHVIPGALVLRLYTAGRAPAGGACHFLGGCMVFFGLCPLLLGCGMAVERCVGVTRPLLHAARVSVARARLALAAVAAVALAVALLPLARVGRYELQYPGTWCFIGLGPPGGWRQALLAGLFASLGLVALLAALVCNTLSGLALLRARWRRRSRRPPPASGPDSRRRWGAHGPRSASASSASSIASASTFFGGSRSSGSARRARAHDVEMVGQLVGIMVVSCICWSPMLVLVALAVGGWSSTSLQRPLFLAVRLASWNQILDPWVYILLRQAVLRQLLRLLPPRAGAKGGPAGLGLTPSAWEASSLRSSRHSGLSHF

[16] = molecular target: Prostaglandin E2 receptor EP3 subtype (Homo sapiens) (UniProt P43115); assay: Inhibition of human prostanoid EP3 receptor at 10 uM relative to control
Sequence of Prostaglandin E2 receptor EP3 subtype (Homo sapiens) (P43115 whole entry): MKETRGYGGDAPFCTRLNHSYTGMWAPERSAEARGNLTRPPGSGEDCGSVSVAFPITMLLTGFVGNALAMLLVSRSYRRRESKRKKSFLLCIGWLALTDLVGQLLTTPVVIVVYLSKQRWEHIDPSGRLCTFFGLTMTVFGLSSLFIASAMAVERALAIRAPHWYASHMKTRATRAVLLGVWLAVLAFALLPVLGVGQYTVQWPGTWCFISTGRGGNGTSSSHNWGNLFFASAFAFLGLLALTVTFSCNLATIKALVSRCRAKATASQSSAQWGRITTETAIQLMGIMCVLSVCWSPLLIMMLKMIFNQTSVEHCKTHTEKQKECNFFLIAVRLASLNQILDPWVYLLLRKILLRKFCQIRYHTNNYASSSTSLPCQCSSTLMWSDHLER

[17] = Unbound drug level in Wistar Han rat plasma at 1 mg/kg, iv or 2 mg/kg, po measured at 3 hrs; format: ADME, organism-based; settings: in vivo
[18] = Total drug level in Wistar Han rat plasma at 1 mg/kg, iv or 2 mg/kg, po measured at 3 hrs; format: ADME, organism-based
[19] = Cmax in Wistar Han rat at 1 mg/kg, iv or 2 mg/kg, po; format: ADME, organism-based; settings: in vivo
[20] = Oral bioavailability in Wistar Han rat at 2 mg/kg; format: ADME, organism-based; settings: in vivo
[21] = Half-life in Wistar Han rat at 1 mg/kg, iv or 2 mg/kg, po; format: ADME, organism-based; settings: in vivo
[22] = Volume of distribution in Wistar Han rat at 1 mg/kg, iv or 2 mg/kg, po; format: ADME, organism-based; settings: in vivo
[23] = Dose normalized AUC in Wistar Han rat at 2 mg/kg, po; format: ADME, organism-based; settings: in vivo
[24] = Clearance in Wistar Han rat at 1 mg/kg, iv or 2 mg/kg, po; format: ADME, organism-based; settings: in vivo
[25] = Total drug level in rat plasma at 10 mg/kg, po; format: ADME, organism-based; settings: in vivo
[26] = Total drug level in rat plasma at 30 mg/kg, po; format: ADME, organism-based; settings: in vivo
[27] = Total drug level in rat plasma at 3 mg/kg, po; format: ADME, organism-based; settings: in vivo
[28] = Total drug level in rat plasma at 1 mg/kg, po; format: ADME, organism-based; settings: in vivo
[29] = Total drug level in rat plasma at 0.3 mg/kg, po; format: ADME, organism-based; settings: in vivo
[30] = Protein binding in rat plasma assessed as unbound fraction at 30 mg/kg, po; format: ADME, organism-based; settings: in vivo
[31] = Protein binding in rat plasma assessed as unbound fraction at 10 mg/kg, po; format: ADME, organism-based; settings: in vivo
[32] = Protein binding in rat plasma assessed as unbound fraction at 3 mg/kg, po; format: ADME, organism-based; settings: in vivo
[33] = Protein binding in rat plasma assessed as unbound fraction at 1 mg/kg, po; format: ADME, organism-based; settings: in vivo
Mus musculus = species: Mus musculus; assay: Glucose lowering effect in mouse assessed as increase in GLP-1 level; format: functional, organism-based
[34] = Protein binding in rat plasma assessed as unbound fraction at 0.3 mg/kg, po; format: ADME, organism-based; settings: in vivo
Rattus norvegicus [35] = assay: Hypoglycemic activity in Sprague-Dawley rat assessed as reduction in blood glucose AUC at 3 mg/kg, ip measured after 3 hrs by IPGTT relative to control; format: functional
[36] = Drug level in rat plasma at 100 mg/kg; format: ADME, organism-based; settings: in vivo
[37] = Drug level in rat plasma at 650 mg/kg; format: ADME, organism-based; settings: in vivo
[38] = Toxicity in rat at 100 mg/kg administered for 4 days; format: organism-based; settings: in vivo, 96 h
[39] = Toxicity in rat assessed as change in clinical pathology at 600 mg/kg administered for 4 days; format: organism-based; settings: in vivo, 96 h
[40] = Drug metabolism in human hepatocytes assessed as (2S,3S,4S,5R)-6-((2S,3R)-3-cyclopropyl-3-(3-((R)-5-(2-fluoro-5-methoxyphenyl)-2,3-dihydro-1H-inden-1-yloxy)phenyl)-2-methylpropanoyloxy)-3,4,5-trihydroxytetrahydro-2H-pyran-2-carboxylic acid formation at 5 uM measured after 2 hrs; format: ADME, cell-based, Hepatocyte
[41] = Drug metabolism in rat hepatocytes assessed as (2S,3R)-3-cyclopropyl-3-(3-((R)-5-(2-fluoro-5-(sulfooxy)phenyl)-2,3-dihydro-1H-inden-1-yloxy)phenyl)-2-methylpropanoic acid formation at 5 uM measured after 2 hrs; format: ADME, cell-based, Hepatocyte
[42] = Drug level in Wistar Han rat assessed as unbound fraction at 1 mg/kg, iv or 2 mg/kg, po; format: ADME, organism-based; settings: in vivo
Rattus norvegicus [43] = assay: Hypoglycemic activity in Sprague-Dawley rat assessed as reduction in blood glucose AUC at 0.3 mg/kg, po pretreated for 1 hr followed by glucose challenge by OGTT relative to control; format: functional; set-up: scale not given: the % may be the effect or the level left
Rattus norvegicus [44] = assay: Hypoglycemic activity in Sprague-Dawley rat assessed as reduction in blood glucose AUC at 30 mg/kg, po pretreated for 1 hr followed by glucose challenge by OGTT relative to control; format: functional; set-up: scale not given: the % may be the effect or the level left
Rattus norvegicus [45] = assay: Hypoglycemic activity in Sprague-Dawley rat assessed as reduction in blood glucose AUC at 10 mg/kg, po pretreated for 1 hr followed by glucose challenge by OGTT relative to control; format: functional; set-up: scale not given: the % may be the effect or the level left
Rattus norvegicus [46] = assay: Hypoglycemic activity in Sprague-Dawley rat assessed as reduction in blood glucose AUC at 3 mg/kg, po pretreated for 1 hr followed by glucose challenge by OGTT relative to control; format: functional; set-up: scale not given: the % may be the effect or the level left
Rattus norvegicus [47] = assay: Hypoglycemic activity in Sprague-Dawley rat assessed as reduction in blood glucose AUC at 1 mg/kg, po pretreated for 1 hr followed by glucose challenge by OGTT relative to control; format: functional; set-up: scale not given: the % may be the effect or the level left
[48] = molecular target: T1, Free fatty acid receptor 1; assay: Positive allosteric modulation of recombinant human GPR40 expressed in HEK293 cells assessed as increase in [3H]-myo-inositol phosphate accumulation measured after 60 mins in absence of human serum by microbeta counting method; format: functional, cell-based
[49] = Ratio of compound effect for protein binding in rat plasma assessed as unbound fraction at 30 mg/kg, po to fEC50 for positive allosteric modulation of recombinant human GPR40 expressed in HEK293 cells in presence of 100% human serum
[50] = Ratio of compound effect for protein binding in rat plasma assessed as unbound fraction at 10 mg/kg, po to fEC50 for positive allosteric modulation of recombinant human GPR40 expressed in HEK293 cells in presence of 100% human serum
[51] = Toxicity in rat assessed as change in body weight at 600 mg/kg administered for 4 days; format: organism-based; settings: in vivo, 96 h
[52] = Solubility of the compound in FASSIF; format: physicochemical
[53] = Drug level in rat hepatocytes treated with (2S,3R)-3-cyclopropyl-3-(3-((R)-5-(2-fluoro-5-methoxyphenyl)-2,3-dihydro-1H-inden-1-yloxy)phenyl)-2-methylpropanoic acid at 5 uM measured after 2 hrs; format: ADME, cell-based, Hepatocyte

C[C@H](C(=O)OC1O[C@H](C(=O)O)[C@@H](O)[C@H](O)[C@H]1O)[C@H](c1cccc(O[C@@H]2CCc3cc(-c4cc(O)ccc4F)ccc32)c1)C1CC1 (stereo not given in full)
Drug metabolism [1]: Metabolite_Detected
Stability [2]: Stable

COc1ccc(F)c(-c2ccc3c(c2)CC[C@H]3Oc2cccc([C@H](C3CC3)[C@H](C)C(=O)O)c2)c1
inhibition [3]: 55%
Activity [4]: 205%
Activity [5]: 323%
EC50 [6]: 388 nM
fEC50 [6]: 0.04 nM
Fu [7]: 0.01%
inhibition [8]: 52%
inhibition [9]: 71%
inhibition [10]: 87%
inhibition [11]: 68%
inhibition [12]: 89%
inhibition [13]: 69%
inhibition [14]: 70%
inhibition [15]: 81%
inhibition [16]: 80%
Cp(f) [17]: 0.16 nM
concentration at 3 h [18]: 1600 nM
Cmax [19]: 2900 nM
bioavailability [20]: 81%
half-life [21]: 1.8 h
Vd [22]: 0.33 L/kg
AUC/dose [23]: 21.5 µM·h
clearance [24]: 2.8 mL/min/kg
concentration [25]: 7610 nM
concentration [26]: 17300 nM
concentration [27]: 4470 nM
concentration [28]: 689 nM
concentration [29]: 207 nM
Cp(f) [30]: 1.73 nM
Cp(f) [31]: 0.76 nM
Cp(f) [32]: 0.45 nM
Cp(f) [33]: 0.069 nM
Activity (Mus musculus): Active
Cp(f) [34]: 0.02 nM
inhibition in vivo at 3 mg/kg (Rattus norvegicus [35]): 71%
concentration [36]: 1240 nM
concentration [37]: 1900 nM
Activity [38]: Non-Toxic
Activity [39]: Toxic
Drug metabolism [40]: Metabolite_Detected
Drug metabolism [41]: Metabolite_Detected
Fu [42]: 0.01%
Activity (Rattus norvegicus [43]): 19%
Activity (Rattus norvegicus [44]): 114%
Activity (Rattus norvegicus [45]): 105%
Activity (Rattus norvegicus [46]): 82%
Activity (Rattus norvegicus [47]): 40%
EC50 [48]: 4.5 nM
Ratio [49]: 42
Ratio [50]: 19
Activity [51]: Toxic
solubility [52]: 153 µM (≈ 70.5 µg/mL)

C[C@H](C(=O)O)[C@H](c1cccc(O[C@@H]2CCc3cc(-c4cc(OS(=O)(=O)O)ccc4F)ccc32)c1)C1CC1
Drug metabolism [53]: Metabolite_Detected
